The text below walks through data of PubChem BioAssay (NCI).

Some test systems named below: DMS 273 small cell lung; NCI/ADR-RES ovarian; HS 578T breast; RXF 393 renal; CCRF-CEM leukemia; KM20L2 colon; UACC-62 melanoma; DLD-1 colon; PC-3 prostate; BT-549 breast.
Common to all, as to assay: DTP human tumour cell line panel, 48 h

The structures appear in SMILES notation. Where “and” joins values, the source holds several entries; their conditions need not be identical. Identical values can stand only once.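 In this assay, cells in 96-well plates receive the compound at five concentrations for 48 hours. Endpoints are linearly interpolated between the surrounding concentrations. GI50 marks 50% less growth. Definition used: TGI = concentration required for complete inhibition of growth.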 A value given as a limit tells only on which side of the number the result lay.

As for `Nc1ncnc2c1ncn2CC(O)C(=O)O` (configuration not stated), the TGI in the experiment on DMS 273 small cell lung, with NCI/ADR-RES ovarian, in the experiment with HS 578T breast, with RXF 393 renal, with CCRF-CEM leukemia and with KM20L2 colon was over 100 µM in each case. Moreover, the TGI in the experiment with UACC-62 melanoma, with DLD-1 colon, in the experiment on PC-3 prostate and in the experiment with BT-549 breast was over 100 µM in each case.

In the case of `C=C(C)C(=O)OC1CC2=CC(CC3(C)OC3C3OC(=O)C(=C)C13)OC2=O` (configuration not stated), the TGI (commonly the concentration at which net growth stops) was 28.3 µM in the experiment on DMS 273 small cell lung; 44.3 µM in the experiment with HS 578T breast; 9.37 µM in the experiment on RXF 393 renal; 5.59 µM in the experiment on CCRF-CEM leukemia; 30.5 µM with KM20L2 colon; 22 µM with UACC-62 melanoma. Besides, the TGI in the experiment with DLD-1 colon stood at 5.17 µM; in the experiment on PC-3 prostate, 28.1 µM; with BT-549 breast it was 25 µM. Moreover, the GI50 (in general, the concentration that inhibits growth by half) in the experiment with CCRF-CEM leukemia is 1.63 µM.

Consider `COc1cc(Cn2c(=S)ss/c2=N\C(=S)N(C)C)cc(OC)c1OC`, for which the TGI in the experiment with DMS 273 small cell lung is over 100 µM; with NCI/ADR-RES ovarian it was over 100 µM; in the experiment with HS 578T breast, over 100 µM; with RXF 393 renal, 29.5 µM; in the experiment with CCRF-CEM leukemia it was over 77.5 µM; with KM20L2 colon, over 100 µM. Moreover, the TGI in the experiment with UACC-62 melanoma was 58.6 µM; in the experiment on DLD-1 colon, over 100 µM; with PC-3 prostate, over 100 µM; in the experiment on BT-549 breast, over 100 µM.

On to `NC1=C(Br)C(=O)c2ncccc2C1=O`, for which the TGI in the experiment on DMS 273 small cell lung turned out to be 1.44 µM; with NCI/ADR-RES ovarian, 6.12 µM; in the experiment on HS 578T breast, 2.84 µM; in the experiment with RXF 393 renal it was 1.32 µM; with CCRF-CEM leukemia, 13.7 µM; in the experiment with KM20L2 colon, 3.54 µM. Further, the TGI came out at 0.713 µM with UACC-62 melanoma, 1.98 µM in the experiment with DLD-1 colon, 9.64 µM with PC-3 prostate and 2.57 µM with BT-549 breast. The GI50 in the experiment with NCI/ADR-RES ovarian is 0.987 µM; in the experiment on HS 578T breast, 0.37 µM; in the experiment on PC-3 prostate, 1.65 µM; in the experiment with BT-549 breast it was 1.16 µM.

Take `C/C([O-])=C1\Cc2ccccc2C1=O.C/C([O-])=C1\Cc2ccccc2C1=O.CC[O-].CC[O-].[Ti+4]`: the GI50 in the experiment with DMS 273 small cell lung was 8.38 µM; with NCI/ADR-RES ovarian it was 23.4 µM; with HS 578T breast it was 11.7 µM; in the experiment with RXF 393 renal, 7.3 µM; in the experiment with CCRF-CEM leukemia it was 13.9 µM; in the experiment on KM20L2 colon it was 29.2 µM. Moreover, the values for the GI50 in the experiment on UACC-62 melanoma, with DLD-1 colon and in the experiment with PC-3 prostate were 12.4 µM, 18.7 µM and 22 µM, respectively. In addition, the TGI in the experiment with DMS 273 small cell lung is 31.4 µM; in the experiment on NCI/ADR-RES ovarian it was over 100 µM; in the experiment on HS 578T breast it was 47.2 µM; in the experiment with RXF 393 renal, 21.9 µM; in the experiment with CCRF-CEM leukemia it was over 70.2 µM; with KM20L2 colon, over 100 µM. Also, the TGI in the experiment on UACC-62 melanoma was 31.6 µM; in the experiment on DLD-1 colon it was over 100 µM; in the experiment with PC-3 prostate, 71.7 µM.

On to `CCCCCCCCCCC(O)[C@H]1CCC(C2CC[C@H]([C@H](O)CCCCCCCCCCC(O)CC3=CC(C)OC3=O)O2)O1` (some centres not stated), for which the TGI in the experiment with DMS 273 small cell lung came out at 4.4 µM; in the experiment with NCI/ADR-RES ovarian it was 2.11 µM; in the experiment with HS 578T breast, 3.5 µM; in the experiment on RXF 393 renal it was 5 µM; in the experiment with CCRF-CEM leukemia, 5.37 µM; with KM20L2 colon, 19.4 µM. The TGI with UACC-62 melanoma was 4.03 µM and 14.2 µM; with DLD-1 colon, over 100 µM; in the experiment on PC-3 prostate, 3.73 µM. Besides, the GI50 in the experiment on UACC-62 melanoma is 1.97 µM.
